Consider 15 compounds from patent US8378117B2 (priority 2005, dated 2013).

Read-outs that look alike come from different tables or passages of the source.

For assay [1], the target named is T1, CB1 receptor (Homo sapiens, UniProt P21554).
T1 construct: expressed in transfected cells
Description: cell-based. The procedure, abridged: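 SK-N-MC cells stably co-expressing human CB1 and a CRE-β-galactosidase reporter; forskolin-induced β-gal activity measured after compound treatment, as % of vehicle-treated cells (100%). EC50 by linear regression from concentration series; otherwise % change at a single concentration.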

Assay [2] has as its target T2, CB2 receptor (Homo sapiens, UniProt P34972).
T2 construct: expressed in transfected cells
Description: Functional cell-based assay, CB2 receptor mediated change in CRE β-gal expression (SK-N-MC cells). Particulars: for EC50: SK-N-MC cells. From the text: The CB1 and CB2 receptors are G-protein coupled receptors (GPCR), which influence cell function via the Gi-protein. These receptors modulate the activity of intracellular adenylate cyclase, which in turn produces the intracellular signal messenger cyclic-AMP (cAMP).
At baseline, or during non-ligand bound conditions, these receptors are constitutively active and tonically suppress adenylate cyclase activity. The binding of an agonist causes further receptor activation and produces additional suppression of adenylate cyclase activity. The binding of an inverse agonist inhibits the constitutive activity of the receptors and results in an increase in adenylate cyclase activity.
By monitoring intracellular adenylate cyclase activity, the ability of compounds to act as agonists or inverse agonists can be determined.
Test compounds were evaluated in SK-N-MC cells which, using standard transfection procedures, were stably transfected with human cDNA for pcDNA3-CRE β-gal and pcDNA3 CB1 receptor (human) or pcDNA3 CB2 receptor (human). By expressing CRE β-gal, the cells produced β-galactosidase in response to CRE promoter activation by cAMP. Cells expressing CRE β-gal and either the human CB1 or CB2 receptor will produce less β-galactosidase when treated with a CB1/CB2 agonist and will produce more β-galactosidase when treated with a CB1/CB2 inverse agonist.
The cells were grown in 96-well plates under standard cell culture conditions at 37° C. in a 5% CO2 atmosphere and culture media (wherein the media was supplemented with 2 mM L-glutamine, […] sodium pyruvate, 10% FBS (fetal bovine serum) and antibiotics).
For cells expressing CRE β-gal and the CB2 receptor, CB2 agonists reduced β-galactosidase activity in a dose-dependent manner and CB2 inverse agonists increase β-galactosidase activity in a dose-dependent manner.
The change in forskolin induced β-galactosidase activity was determined by setting a vehicle treated cell's activity value at 100% and expressing the β-galactosidase activity measured in a corresponding compound treated cell as a percent of the vehicle treated cell activity.
The EC50 value for functional activity for compounds tested was calculated by linear regression and was obtained from studies in which varying compound concentrations were used.

Assay [3] addresses T1, CB1 receptor. As to the kind of experiment: Binding assay for CB1 agonists or inverse agonists (SK-N-MC membranes, [3H]-CP-55,940). To be noted: for inhibition at 1 µM: read-out: CB1 receptor binding percent inhibition, test concentration 1 μM (footnote 1). A digest of the protocol:
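Membranes from SK-N-MC cells stably expressing human CB1 incubated with compound and [3H]-CP-55,940 ([…]) for 90 min at 30° C in Tris-HCl pH 7.5, MgCl2, EDTA, fatty-acid-free BSA. Non-specific binding defined with 10 uM WIN 55,212; filtration, scintillation count; IC50 by linear regression.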

Assay [4] addresses T2, CB2 receptor. As to the kind of experiment: Binding assay for CB2 agonists or inverse agonists (SK-N-MC membranes, [3H]-CP-55,940). To be noted: for inhibition at 0.2 µM: read-out: CB2 receptor binding percent inhibition, test concentration 0.2 μM (footnote 2). A digest of the protocol: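 Membranes from SK-N-MC cells stably expressing human CB2 were incubated with radioligand and test compounds for 90 min at 30 °C in Tris-HCl buffer, pH 7.5, with MgCl2, EDTA and fatty-acid-free BSA. Filter-bound radioactivity was counted; IC50 was derived by linear regression of percent inhibition.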

Setting [5] is: CB1 Receptor Functional Agonist EC50, SK-N-MC cells, forskolin induced β-galactosidase activity.
Setting [6] is: CB2 Receptor Functional Agonist EC50, forskolin induced β-galactosidase activity.
The mark [7] stands for this setting: Cannabinoid CB1 Receptor Binding IC50, calculated by linear regression from percent inhibition at various test concentrations.
Where [8] appears, read: SK-N-MC cells, forskolin induced β-galactosidase activity, read-out: CB1 Receptor Functional Agonist EC50.
Setting [9] is: read-out: CB1 receptor binding percent inhibition, test concentration 0.2 μM (footnote 2).
The mark [10] stands for this setting: CB1 Receptor Functional Inverse Agonist EC50, forskolin induced β-galactosidase activity, SK-N-MC cells.

T2 sequence (P34972 whole entry): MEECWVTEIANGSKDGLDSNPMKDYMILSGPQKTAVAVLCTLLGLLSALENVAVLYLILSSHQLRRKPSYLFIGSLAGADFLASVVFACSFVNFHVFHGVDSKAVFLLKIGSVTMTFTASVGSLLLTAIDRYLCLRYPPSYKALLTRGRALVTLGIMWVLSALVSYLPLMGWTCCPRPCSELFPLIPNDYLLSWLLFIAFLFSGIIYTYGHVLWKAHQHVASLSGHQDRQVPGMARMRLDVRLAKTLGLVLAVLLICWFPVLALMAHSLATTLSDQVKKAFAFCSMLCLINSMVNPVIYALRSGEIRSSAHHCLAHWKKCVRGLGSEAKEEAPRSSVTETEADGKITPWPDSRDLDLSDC
T1 sequence (P21554 whole entry): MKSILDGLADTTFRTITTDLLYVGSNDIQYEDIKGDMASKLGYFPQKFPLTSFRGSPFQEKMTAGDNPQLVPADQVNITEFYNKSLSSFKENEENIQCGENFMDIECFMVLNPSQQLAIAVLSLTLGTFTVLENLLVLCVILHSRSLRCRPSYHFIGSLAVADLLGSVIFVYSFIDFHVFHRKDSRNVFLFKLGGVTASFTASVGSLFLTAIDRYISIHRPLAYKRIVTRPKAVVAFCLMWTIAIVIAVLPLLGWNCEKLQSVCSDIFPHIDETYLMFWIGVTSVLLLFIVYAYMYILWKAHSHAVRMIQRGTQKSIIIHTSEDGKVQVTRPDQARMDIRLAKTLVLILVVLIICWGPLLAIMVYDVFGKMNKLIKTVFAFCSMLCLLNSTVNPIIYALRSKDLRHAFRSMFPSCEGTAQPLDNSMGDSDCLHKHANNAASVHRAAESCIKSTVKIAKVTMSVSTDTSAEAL

As to `COC[C@H](NC(=O)c1n[nH]c2c1CCCC[C@H]2Cc1cccc(Cl)c1)c1ccccc1` (stereo in doubt) [Cpd 253, (8S*)-(3-chloro-benzyl)-1,4,5,6,7,8-hexahydro-cycloheptapyrazole-3-carboxylic acid [(1R)-2-methoxy-1-phenyl-ethyl]-amide], the results for the EC50 in assay [1] (setting [5]) and in assay [2] (setting [6]) were more than 5000 nM and 200 nM, respectively.

As for `COC[C@@H](NC(=O)c1n[nH]c2c1CCCC[C@H]2Cc1cccc(Cl)c1)c1ccccc1` (stereo in doubt) [Cpd 252, (8S*)-(3-chloro-benzyl)-1,4,5,6,7,8-hexahydro-cycloheptapyrazole-3-carboxylic acid [(1S)-2-methoxy-1-phenyl-ethyl]-amide], the EC50 in assay [1] (setting [5]) is more than 5000 nM; in assay [2] (setting [6]), 19 nM.

With `Cn1nc(C(=O)N[C@H](CCO)c2ccccc2)c2c1/C(=C/c1cccc(F)c1)CCCC2` [Cpd 249, (8E)-8-(3-fluoro-benzylidene)-1-methyl-1,4,5,6,7,8-hexahydro-cycloheptapyrazole-3-carboxylic acid [(1R)-3-hydroxy-1-phenyl-propyl]-amide], the values for the EC50 in assay [1] (setting [5]) and in assay [2] (setting [6]) were more than 5000 nM and 47 nM, respectively.

As to `C[C@@H](NC(=O)c1n[nH]c2c1CCCC/C2=C\c1ccc(Cl)cc1)c1ccccc1` [Cpd 142, (8E)-8-(4-chloro-benzylidene)-1,4,5,6,7,8-hexahydro-cycloheptapyrazole-3-carboxylic acid [(1R)-1-phenyl-ethyl]-amide], the IC50 in assay [3] (setting [7]) is 10 nM. The inhibition at 0.2 µM in assay [3] (read-out: CB1 receptor binding percent inhibition) amounted to 83%. The “CB2 receptor binding percent inhibition” value in assay [4] (test concentration 0.2 μM (footnote 2)) is recorded as “^(2)98%”. Moreover, the “CB2 receptor change in functional activity” value in assay [2] (one compound concentration, forskolin induced β-galactosidase activity) came to 1%.

`COC[C@@H](NC(=O)c1n[nH]c2c1CCCC[C@@H]2Cc1cccc(Cl)c1)c1ccccc1` (stereo in doubt) [Cpd 251, (8R*)-(3-chloro-benzyl)-1,4,5,6,7,8-hexahydro-cycloheptapyrazole-3-carboxylic acid [(1S)-2-methoxy-1-phenyl-ethyl]-amide]: the EC50 turned out to be 410 nM in assay [1] (setting [5]) and 3 nM in assay [2] (setting [6]).

For `O=C(N[C@H](CCO)c1ccccc1)c1n[nH]c2c1CCCC/C2=C\c1cccc(Cl)c1` [Cpd 250, (8E)-8-(3-chloro-benzylidene)-1,4,5,6,7,8-hexahydro-cycloheptapyrazole-3-carboxylic acid [(1R)-3-hydroxy-1-phenyl-propyl]-amide], the EC50 was more than 5000 nM in assay [1] (setting [8]) and 130 nM in assay [2] (forskolin induced β-galactosidase activity, read-out: CB2 Receptor Functional Agonist EC50).

Turning to `COC[C@H](NC(=O)c1n[nH]c2c1CCCC[C@@H]2Cc1cccc(Cl)c1)c1ccccc1` (stereo in doubt) [Cpd 254, (8R*)-(3-chloro-benzyl)-1,4,5,6,7,8-hexahydro-cycloheptapyrazole-3-carboxylic acid [(1R)-2-methoxy-1-phenyl-ethyl]-amide], the EC50 in assay [1] (setting [5]) stood at 80 nM; in assay [2] (setting [6]) it was 2 nM.

For `O=C(NCCc1ccccn1)c1nn(-c2ccc(Cl)cc2Cl)c2c1CCCC/C2=C\c1ccc(Cl)cc1` [Cpd 157, (8E)-8-(4-chloro-benzylidene)-1-(2,4-dichloro-phenyl)-1,4,5,6,7,8-hexahydro-cycloheptapyrazole-3-carboxylic acid (2-pyridin-2-yl-ethyl)-amide], in assay [3] (setting [7]), the IC50 was 100 nM. Moreover, the inhibition at 0.2 µM in assay [3] (setting [9]) was determined as 68%; in assay [4], 5%. For the same compound, the EC50 in assay [1] (setting [10]) worked out at 40 nM.

For `C[C@H](NS(=O)(=O)/C=C/c1nn(-c2ccc(F)cc2F)c2c1CCCCC2Cc1ccc(F)cc1)c1ccccc1` (stereo partly drawn) [Cpd 107, (2E)-2-[1-(2,4-difluoro-phenyl)-8-(4-fluoro-benzyl)-1,4,5,6,7,8-hexahydro-cycloheptapyrazol-3-yl]-ethenesulfonic acid [(1S)-1-phenyl-ethyl]-amide], the IC50 in assay [3] (calculated by linear regression from percent inhibition at various test concentrations, read-out: Cannabinoid CB1 Receptor Binding IC50) is 300 nM. Moreover, in assay [3] (read-out: CB1 receptor binding percent inhibition, test concentration 0.5 μM (footnote 10)), the inhibition at 0.5 µM was 59%. Moreover, the inhibition at 1 µM in assay [3] came out at 72%. In addition, the “CB2 receptor binding percent inhibition” value in assay [4] (test concentration not stated) came to 64%. Further, the EC50 in assay [1] (setting [8]) was 19800 nM.

For the compound `C[C@@H](NC(=O)c1nn(C2CCCCC2)c2c1CCCCC2Cc1cccc(Cl)c1)c1ccccc1` (stereo partly drawn) [Cpd 8, 8-(3-chloro-benzyl)-1-cyclohexyl-1,4,5,6,7,8-hexahydro-cycloheptapyrazole-3-carboxylic acid [(1R)-1-phenyl-ethyl]-amide], in assay [3], the inhibition at 1 µM is 30%. Also, in assay [4] (test concentration not stated), the “CB2 receptor binding percent inhibition” value is recorded as 5%. The EC50 in assay [1] (forskolin induced β-galactosidase activity, SK-N-MC cells, read-out: CB1 Receptor Functional Inverse Agonist EC50) worked out at 400 nM.

For the compound `COc1ccc(/C=C2\CCCCc3c(C(=O)NC(C)(C)c4ccccc4)nn(-c4ccc(Cl)cc4Cl)c32)cc1` [Cpd 211, (8E)-1-(2,4-dichloro-phenyl)-8-(4-methoxy-benzylidene)-1,4,5,6,7,8-hexahydro-cycloheptapyrazole-3-carboxylic acid (1-methyl-1-phenyl-ethyl)-amide], in assay [3] (setting [7]), the IC50 was 7 nM. Besides, the inhibition at 0.2 µM in assay [3] (setting [9]) was determined as 92%; in assay [4] it was 37%. Further, the EC50 in assay [1] (setting [10]) came out at 20 nM.

With `C[C@H](NS(=O)(=O)/C=C/c1nn(C2CCCCC2)c2c1CCCCC2Cc1cccc(F)c1)c1ccccc1` (stereo partly drawn) [Cpd 75, (2E)-2-[1-cyclohexyl-8-(3-fluoro-benzyl)-1,4,5,6,7,8-hexahydro-cycloheptapyrazol-3-yl]-ethenesulfonic acid [(1S)-1-phenyl-ethyl]-amide], the IC50 in assay [3] (setting [7]) was 200 nM. Further, the “CB1 receptor binding average percent inhibition” value in assay [3] (value shown is an average percent inhibition (footnote 5), concentration not given) stood at 77%. In addition, in assay [4] (test concentration not stated), the “CB2 receptor binding percent inhibition” value stood at 27%. The same compound returned an EC50 in assay [1] (setting [10]) of 70 nM.

As for `CC[C@@H](NC(=O)c1nn(-c2ccc(Cl)cc2Cl)c2c1CCCC/C2=C\c1ccc(F)cc1)c1ccccc1` [Cpd 202, (8E)-1-(2,4-dichloro-phenyl)-8-(4-fluoro-benzylidene)-1,4,5,6,7,8-hexahydro-cycloheptapyrazole-3-carboxylic acid [(1R)-1-phenyl-propyl]-amide], the IC50 in assay [3] (setting [7]) was 10 nM. The inhibition at 0.2 µM in assay [3] (setting [9]) came out at 91%; in assay [4] it was 9%. In addition, a half-maximal effect in assay [1] (setting [10]) (EC50) was put at 9 nM.

`O=C(NN1CCOCC1)c1nn(-c2ccc(Cl)cc2Cl)c2c1CCCC/C2=C\c1ccc(Cl)cc1` [Cpd 134, (8E)-8-(4-chloro-benzylidene)-1-(2,4-dichloro-phenyl)-1,4,5,6,7,8-hexahydro-cycloheptapyrazole-3-carboxylic acid morpholin-4-ylamide]: the inhibition at 0.25 µM in assay [3] (read-out: CB1 receptor binding percent inhibition, test concentration 0.25 μM (footnote 8)) was determined as 58%; in assay [4] (read-out: CB2 receptor binding percent inhibition, test concentration 0.25 μM (footnote 8)), 28%. Besides, the response in assay [1] (setting [10]) was half-maximal at 10 nM (EC50).

For the compound `CC12CCC(C1)C(C)(C)[C@H]2NC(=O)c1nn(-c2ccc(F)cc2F)c2c1CCCCC2Cc1cccc(F)c1` (stereo partly drawn) [Cpd 92, 1-(2,4-difluoro-phenyl)-8-(3-fluoro-benzyl)-1,4,5,6,7,8-hexahydro-cycloheptapyrazole-3-carboxylic acid [(2S)-1,3,3-trimethyl-bicyclo[2.2.1]hept-2-yl]-amide], the IC50 in assay [3] (setting [7]) was 100 nM; in assay [4] (Cannabinoid CB2 Receptor Binding IC50, calculated by linear regression from percent inhibition at various test concentrations) it was 200 nM. Also, the inhibition at 1 µM in assay [3] turned out to be 86%; in assay [4] (read-out: CB2 receptor binding percent inhibition, test concentration 1 μM (footnote 1)) it was 82%. This compound showed an EC50 in assay [1] (setting [10]) of 90 nM.

As a reminder, the EC50 is the concentration needed to bring the measured effect to its halfway point. A word on the IC50: it is the concentration at which inhibition is half-maximal.
